Data taken from paper PMC7486443, “Generation of Phenothiazine with Potent Anti-TLK1 Activity for Prostate Cancer Therapy” (iScience, 2020).

What was measured:
Assay in all cases: biochemical
Parameters in all cases: DiscoverX KINOMEscan scanMAX competition binding panel, single concentration, percent of control; remaining binding: dose or concentration left out as unconfirmed
Details in all cases: KINOMEscan binding, percent of control; read-out: Table S4_SCANMAX REPORT - related to Fig. 1 / Percent Control
[1] = molecular target: T1, ABL1(F317I)-phosphorylated (Homo sapiens, UniProt P00519, F317I)
T1 construct: phosphorylated

[2] = molecular target: T2, BRK (Homo sapiens, UniProt Q13882)
T2 construct: gene PTK6
T2 sequence (Q13882 whole entry): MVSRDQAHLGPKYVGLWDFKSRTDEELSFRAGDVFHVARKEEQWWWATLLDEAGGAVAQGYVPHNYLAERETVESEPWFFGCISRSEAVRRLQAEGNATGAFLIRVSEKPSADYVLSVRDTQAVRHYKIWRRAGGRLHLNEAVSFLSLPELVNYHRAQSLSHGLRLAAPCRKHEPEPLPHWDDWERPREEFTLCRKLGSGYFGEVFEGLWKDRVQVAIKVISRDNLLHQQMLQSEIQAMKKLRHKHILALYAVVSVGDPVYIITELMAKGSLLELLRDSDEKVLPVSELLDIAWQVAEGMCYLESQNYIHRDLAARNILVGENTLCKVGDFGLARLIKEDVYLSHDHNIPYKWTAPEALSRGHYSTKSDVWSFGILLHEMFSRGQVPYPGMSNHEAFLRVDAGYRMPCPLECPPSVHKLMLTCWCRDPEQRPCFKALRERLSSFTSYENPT

[3] = molecular target: BRSK2 (Homo sapiens, UniProt Q8IWQ3)
[4] = molecular target: DDR2 (Homo sapiens, UniProt Q16832)
[5] = molecular target: FGFR3 (Homo sapiens, UniProt P22607)
[6] = molecular target: FLT3(K663Q) (Homo sapiens, UniProt P36888, K663Q)
[7] = molecular target: GAK (Homo sapiens, UniProt O14976)
[8] = molecular target: MYLK2 (Homo sapiens, UniProt Q9H1R3)
[9] = molecular target: T3, PFPK5(P.falciparum) (Plasmodium falciparum, UniProt P61075)
T3 construct: gene MAL13P1.279

[10] = molecular target: PIK3C2B (Homo sapiens, UniProt O00750)
[11] = molecular target: PIK3CA(H1047L) (Homo sapiens, UniProt P42336, H1047L)
[12] = molecular target: PIK3CA(H1047Y) (Homo sapiens, UniProt P42336, H1047Y)
[13] = molecular target: PIK3CG (Homo sapiens, UniProt P48736)
[14] = molecular target: ROS1 (Homo sapiens, UniProt P08922)
Chain of ROS1 (P08922 whole entry): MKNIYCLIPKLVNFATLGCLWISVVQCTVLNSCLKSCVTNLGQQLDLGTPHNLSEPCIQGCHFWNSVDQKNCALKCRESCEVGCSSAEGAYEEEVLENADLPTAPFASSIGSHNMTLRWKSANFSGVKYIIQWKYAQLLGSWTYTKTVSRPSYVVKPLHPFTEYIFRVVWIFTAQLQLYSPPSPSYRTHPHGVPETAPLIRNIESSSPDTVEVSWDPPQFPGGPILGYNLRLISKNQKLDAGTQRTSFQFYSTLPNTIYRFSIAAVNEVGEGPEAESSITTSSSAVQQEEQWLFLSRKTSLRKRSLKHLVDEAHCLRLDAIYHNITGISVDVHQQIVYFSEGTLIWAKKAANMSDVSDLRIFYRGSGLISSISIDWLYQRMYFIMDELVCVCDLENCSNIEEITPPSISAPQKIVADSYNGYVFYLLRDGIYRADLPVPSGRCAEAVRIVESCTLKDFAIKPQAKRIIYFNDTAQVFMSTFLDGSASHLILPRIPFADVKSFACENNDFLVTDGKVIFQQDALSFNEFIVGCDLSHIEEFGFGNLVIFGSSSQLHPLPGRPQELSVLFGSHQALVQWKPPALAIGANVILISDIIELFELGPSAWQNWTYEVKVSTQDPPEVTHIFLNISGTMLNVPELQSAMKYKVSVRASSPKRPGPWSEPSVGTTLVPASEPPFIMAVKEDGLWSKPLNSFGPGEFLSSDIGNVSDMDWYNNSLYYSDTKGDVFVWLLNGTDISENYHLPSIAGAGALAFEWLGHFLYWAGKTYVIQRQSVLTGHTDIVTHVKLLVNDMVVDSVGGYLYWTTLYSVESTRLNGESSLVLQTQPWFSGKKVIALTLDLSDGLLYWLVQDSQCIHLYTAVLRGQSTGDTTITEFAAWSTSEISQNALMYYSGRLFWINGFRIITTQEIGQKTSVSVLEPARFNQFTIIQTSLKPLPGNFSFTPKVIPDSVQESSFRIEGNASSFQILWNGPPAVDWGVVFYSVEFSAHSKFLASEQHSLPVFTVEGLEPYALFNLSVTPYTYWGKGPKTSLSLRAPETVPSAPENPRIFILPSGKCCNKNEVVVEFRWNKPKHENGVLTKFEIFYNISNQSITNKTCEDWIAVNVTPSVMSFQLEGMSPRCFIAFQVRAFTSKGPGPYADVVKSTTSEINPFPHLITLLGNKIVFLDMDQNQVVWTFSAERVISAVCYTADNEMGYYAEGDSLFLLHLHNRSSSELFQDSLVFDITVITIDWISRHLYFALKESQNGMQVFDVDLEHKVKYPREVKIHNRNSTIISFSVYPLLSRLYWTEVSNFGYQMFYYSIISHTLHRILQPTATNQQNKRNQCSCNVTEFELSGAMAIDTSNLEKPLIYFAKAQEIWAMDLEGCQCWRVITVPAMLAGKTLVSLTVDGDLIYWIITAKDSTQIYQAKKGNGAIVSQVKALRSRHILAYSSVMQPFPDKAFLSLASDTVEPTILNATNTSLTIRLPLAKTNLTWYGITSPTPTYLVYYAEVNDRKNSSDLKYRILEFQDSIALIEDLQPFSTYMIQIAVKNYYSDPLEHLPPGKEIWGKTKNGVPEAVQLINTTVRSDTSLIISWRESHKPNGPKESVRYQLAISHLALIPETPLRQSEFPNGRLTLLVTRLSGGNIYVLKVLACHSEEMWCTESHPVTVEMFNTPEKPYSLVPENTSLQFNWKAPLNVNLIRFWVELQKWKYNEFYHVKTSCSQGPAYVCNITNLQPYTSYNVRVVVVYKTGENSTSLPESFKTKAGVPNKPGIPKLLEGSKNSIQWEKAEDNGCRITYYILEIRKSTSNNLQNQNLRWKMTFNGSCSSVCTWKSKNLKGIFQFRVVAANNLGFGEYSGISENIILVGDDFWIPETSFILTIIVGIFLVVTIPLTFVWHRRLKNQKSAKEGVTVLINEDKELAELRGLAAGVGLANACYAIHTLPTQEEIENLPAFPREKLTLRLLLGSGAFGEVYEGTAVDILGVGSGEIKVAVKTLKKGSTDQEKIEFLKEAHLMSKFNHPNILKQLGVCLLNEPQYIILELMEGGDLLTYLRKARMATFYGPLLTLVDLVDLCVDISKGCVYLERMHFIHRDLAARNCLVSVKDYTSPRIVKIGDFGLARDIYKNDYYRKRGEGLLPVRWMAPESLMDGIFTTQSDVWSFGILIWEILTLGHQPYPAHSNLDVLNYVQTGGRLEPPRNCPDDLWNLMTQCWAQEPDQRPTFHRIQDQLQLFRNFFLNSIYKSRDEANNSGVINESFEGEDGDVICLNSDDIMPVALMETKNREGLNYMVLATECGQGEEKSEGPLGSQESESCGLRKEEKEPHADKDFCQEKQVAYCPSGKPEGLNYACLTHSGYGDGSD

[15] = molecular target: TNIK (Homo sapiens, UniProt Q9UKE5)
[16] = molecular target: TXK (Homo sapiens, UniProt P42681)
[17] = molecular target: VRK2 (Homo sapiens, UniProt Q86Y07)
[18] = molecular target: WNK2 (Homo sapiens, UniProt Q9Y3S1)
Chain of WNK2 (Q9Y3S1 whole entry): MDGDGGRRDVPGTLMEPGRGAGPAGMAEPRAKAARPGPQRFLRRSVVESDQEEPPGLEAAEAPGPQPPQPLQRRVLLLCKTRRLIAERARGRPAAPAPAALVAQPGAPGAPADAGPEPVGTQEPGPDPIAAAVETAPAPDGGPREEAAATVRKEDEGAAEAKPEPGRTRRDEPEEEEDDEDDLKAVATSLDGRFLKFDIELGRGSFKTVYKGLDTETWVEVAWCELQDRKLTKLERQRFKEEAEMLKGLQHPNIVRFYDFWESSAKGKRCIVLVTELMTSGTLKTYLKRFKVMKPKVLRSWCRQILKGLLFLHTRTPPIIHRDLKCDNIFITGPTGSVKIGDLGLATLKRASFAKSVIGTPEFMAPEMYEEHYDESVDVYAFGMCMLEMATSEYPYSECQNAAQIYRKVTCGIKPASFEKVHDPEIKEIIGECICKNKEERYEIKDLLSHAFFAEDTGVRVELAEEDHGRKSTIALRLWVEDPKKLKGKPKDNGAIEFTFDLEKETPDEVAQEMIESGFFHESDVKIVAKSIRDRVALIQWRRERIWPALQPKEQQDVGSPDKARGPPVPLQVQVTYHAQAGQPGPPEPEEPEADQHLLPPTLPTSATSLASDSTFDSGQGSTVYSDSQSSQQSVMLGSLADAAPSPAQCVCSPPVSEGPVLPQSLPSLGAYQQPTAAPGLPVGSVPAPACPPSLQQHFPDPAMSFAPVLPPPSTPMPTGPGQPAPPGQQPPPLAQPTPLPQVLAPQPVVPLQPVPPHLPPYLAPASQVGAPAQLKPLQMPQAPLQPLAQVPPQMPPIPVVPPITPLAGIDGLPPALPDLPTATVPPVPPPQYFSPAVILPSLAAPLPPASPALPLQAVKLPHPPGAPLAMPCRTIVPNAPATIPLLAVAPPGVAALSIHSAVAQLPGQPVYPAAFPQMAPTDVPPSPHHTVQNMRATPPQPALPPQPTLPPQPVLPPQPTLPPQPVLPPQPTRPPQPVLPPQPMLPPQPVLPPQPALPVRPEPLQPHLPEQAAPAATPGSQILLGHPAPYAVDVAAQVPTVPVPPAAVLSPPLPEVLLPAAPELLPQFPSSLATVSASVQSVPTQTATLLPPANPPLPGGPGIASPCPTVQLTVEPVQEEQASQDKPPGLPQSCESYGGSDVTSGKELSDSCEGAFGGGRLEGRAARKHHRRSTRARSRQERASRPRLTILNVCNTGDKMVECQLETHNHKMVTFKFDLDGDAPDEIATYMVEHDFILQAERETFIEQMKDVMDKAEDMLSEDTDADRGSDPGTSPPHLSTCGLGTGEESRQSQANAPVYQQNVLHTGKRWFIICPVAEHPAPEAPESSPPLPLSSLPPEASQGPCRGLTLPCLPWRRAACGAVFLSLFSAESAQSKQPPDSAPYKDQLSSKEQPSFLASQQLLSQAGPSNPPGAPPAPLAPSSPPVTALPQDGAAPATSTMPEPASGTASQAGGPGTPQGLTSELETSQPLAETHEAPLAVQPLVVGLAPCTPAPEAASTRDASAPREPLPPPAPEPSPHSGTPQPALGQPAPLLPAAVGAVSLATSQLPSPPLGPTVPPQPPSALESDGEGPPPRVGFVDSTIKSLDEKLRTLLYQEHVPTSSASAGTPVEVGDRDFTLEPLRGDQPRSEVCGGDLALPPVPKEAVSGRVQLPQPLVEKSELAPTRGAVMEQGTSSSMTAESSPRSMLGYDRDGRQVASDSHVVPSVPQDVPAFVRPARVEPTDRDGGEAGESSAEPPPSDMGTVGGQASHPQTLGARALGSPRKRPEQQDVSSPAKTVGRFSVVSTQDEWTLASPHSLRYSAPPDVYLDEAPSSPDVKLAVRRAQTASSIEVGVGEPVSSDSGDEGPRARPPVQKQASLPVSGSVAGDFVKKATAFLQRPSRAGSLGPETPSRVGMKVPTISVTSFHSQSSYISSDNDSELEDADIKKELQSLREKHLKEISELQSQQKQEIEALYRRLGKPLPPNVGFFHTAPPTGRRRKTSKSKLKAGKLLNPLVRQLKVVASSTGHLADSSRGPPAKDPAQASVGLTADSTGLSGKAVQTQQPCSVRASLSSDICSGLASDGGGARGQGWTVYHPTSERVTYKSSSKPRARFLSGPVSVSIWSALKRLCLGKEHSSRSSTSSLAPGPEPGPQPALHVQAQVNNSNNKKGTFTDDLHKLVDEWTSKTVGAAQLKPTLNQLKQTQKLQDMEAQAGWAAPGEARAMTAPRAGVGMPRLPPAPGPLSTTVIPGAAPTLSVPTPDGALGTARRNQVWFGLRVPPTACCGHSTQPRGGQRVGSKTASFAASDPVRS

With `c1ccc2c(c1)Sc1ccccc1N2CCN1CCOCC1` [J54] the remaining binding [1] was 100%, the remaining binding [2] was 100% and the remaining binding [3] was 100%. It also gave a remaining binding [4] of 88%, a remaining binding [5] of 97% and a remaining binding [6] of 94%. It also gave a remaining binding [7] of 95%, a remaining binding [8] of 74% and a remaining binding [9] of 98%. It also gave a remaining binding [10] of 96%, a remaining binding [11] of 100% and a remaining binding [12] of 86%. For the same compound, the remaining binding [13] was 99%, the remaining binding [14] was 100% and the remaining binding [15] was 98%. It also gave a remaining binding [16] of 99%, a remaining binding [17] of 70% and a remaining binding [18] of 100%.
